What follows are compounds tested against human PDE10A2 (Homo sapiens (Human), UniProt Q9Y233) (assay: PDE10 fluorescence polarization (IMAP FP) inhibition assay). Conditions: human PDE10A2 from transfected AD293 cells; FAM-labeled cAMP 50 nM; apparent inhibition constant; read-out: PDE10A Ki.
Type: biochemical
Method in brief: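 Cytoplasmic lysate of AD293 cells transiently expressing human PDE10A2 (enzyme level giving 20% conversion) incubated with 50 nM FAM-cAMP in pH 7.2 Tris/MgCl2 buffer, 30 min at room temperature. IMAP binding solution added, FP read after ≥1 h; 10-point 3-fold compound titrations fitted to a four-parameter equation.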

Sequence of human PDE10A2 (Q9Y233 267-1055): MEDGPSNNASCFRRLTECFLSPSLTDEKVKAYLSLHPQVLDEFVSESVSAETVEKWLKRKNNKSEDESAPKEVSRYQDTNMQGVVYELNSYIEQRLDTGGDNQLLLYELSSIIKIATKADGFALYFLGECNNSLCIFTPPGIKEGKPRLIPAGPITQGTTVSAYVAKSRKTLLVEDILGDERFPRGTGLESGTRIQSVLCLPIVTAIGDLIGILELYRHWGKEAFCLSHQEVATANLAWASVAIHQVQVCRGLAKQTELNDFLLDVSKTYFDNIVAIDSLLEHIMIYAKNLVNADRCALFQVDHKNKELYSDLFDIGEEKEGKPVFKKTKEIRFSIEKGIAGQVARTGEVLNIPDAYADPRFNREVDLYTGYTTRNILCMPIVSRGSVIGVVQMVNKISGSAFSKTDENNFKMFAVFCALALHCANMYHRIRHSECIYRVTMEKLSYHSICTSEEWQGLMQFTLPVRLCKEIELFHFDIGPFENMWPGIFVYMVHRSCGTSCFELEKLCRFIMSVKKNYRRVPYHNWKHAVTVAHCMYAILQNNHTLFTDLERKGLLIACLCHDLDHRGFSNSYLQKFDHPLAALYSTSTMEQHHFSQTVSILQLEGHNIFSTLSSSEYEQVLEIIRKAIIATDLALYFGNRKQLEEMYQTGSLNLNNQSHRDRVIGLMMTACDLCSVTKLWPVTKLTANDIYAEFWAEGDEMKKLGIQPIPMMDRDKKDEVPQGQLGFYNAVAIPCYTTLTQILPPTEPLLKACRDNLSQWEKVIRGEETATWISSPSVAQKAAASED

SMILES	Ki
CCn1nnnc1-c1ccc(-c2cnc(C)nc2OC[C@H]2C[C@@H]2c2ccc(OC)cn2)cc1 [Example 226, 5-(4-(1-ethyl-1H-tetrazol-5-yl)phenyl)-4-(((1S,2S)-2-(5-methoxypyridin-2-yl)cyclopropyl)methoxy)-2-methylpyrimidine]	0.77 nM
Cc1cccc([C@H]2C[C@@H]2COc2nc(C)ncc2-c2ccc(C(C)(C)O)nc2)n1 [Example 176, 2-(5-(2-methyl-4-(((1S,2S)-2-(6-methylpyridin-2-yl)cyclopropyl)methoxy)pyrimidin-5-yl)pyridin-2-yl)propan-2-ol]	14.8 nM
COc1ccc([C@H]2C[C@@H]2COc2nc(C)ncc2-c2c[nH]oc2=O)nc1 [Example 242, 4-(4-(((1S,2S)-2-(5-methoxypyridin-2-yl)cyclopropyl)methoxy)-2-methylpyrimidin-5-yl)isoxazol-5(2H)-one]	2.36 nM
COc1ccc([C@H]2C[C@@H]2COc2nc(C)ncc2-c2ccc(CO)nn2)nc1 [Example 101, (6-(4-(((1S,2S)-2-(5-methoxypyridin-2-yl)cyclopropyl)methoxy)-2-methylpyrimidin-5-yl)pyridazin-3-yl)methanol]	11.9 nM
CCOC(=O)[C@H]1CC[C@@H](c2cnc(C)nc2OC[C@H]2C[C@@H]2c2ccc(OC)cn2)CC1 [Example 216, cis-Ethyl4-(4-(((1S,2S)-2-(5-methoxypyridin-2-yl)cyclopropyl)methoxy)-2-methylpyrimidin-5-yl)cyclohexanecarboxylate]	7.9 nM
COc1cc(-c2cnc(C)nc2OC[C@H]2C[C@@H]2c2ccc(C)cn2)cnn1 [Example 56, 3-methoxy-5-(2-methyl-4-(((1S,2S)-2-(5-methylpyridin-2-yl)cyclopropyl)methoxy)pyrimidin-5-yl)pyridazine]	6.12 nM
COc1ccc([C@H]2C[C@@H]2COc2nc(C)ncc2-c2ccc(-c3nn[nH]n3)nc2)nc1 [Example 229, 5-(6-(2H-tetrazol-5-yl)pyridin-3-yl)-4-(((1S,2S)-2-(5-methoxypyridin-2-yl)cyclopropyl)methoxy)-2-methylpyrimidine]	0.13 nM
CCc1ccc([C@H]2C[C@@H]2COc2nc(C)ncc2-c2ccc(C(C)(C)O)nc2)nc1 (single isomer, unassigned) [Example 181]	0.05 nM
COc1ccc([C@H]2C[C@@H]2COc2nc(C)ncc2-c2ccc(-c3ncon3)cc2)nc1 [Example 250, 3-(4-(4-(((1S,2S)-2-(5-methoxypyridin-2-yl)cyclopropyl)methoxy)-2-methylpyrimidin-5-yl)phenyl)-1,2,4-oxadiazole]	1.16 nM

Continued by falling Ki, values first:

Ki	SMILES
22.9 nM	COc1ccc([C@H]2C[C@@H]2COc2nc(C)ncc2-c2cc(=O)[nH]n2C)nc1 [Example 238, 5-(4-(((1S,2S)-2-(5-methoxypyridin-2-yl)cyclopropyl)methoxy)-2-methylpyrimidin-5-yl)-1-methyl-1,2-dihydropyrazol-3-one]
15.3 nM	CC[C@]1(O)CC[C@H](c2cnc(C)nc2OC[C@H]2C[C@@H]2c2ccc(C)cn2)CC1 [Example 215, (trans)1-Ethyl-4-(2-methyl-4-(((1S,2S)-2-(5-methylpyridin-2-1)cyclopropyl)methoxy)pyrimidin-5-yl)cyclohexanol]
3.75 nM	COc1ccc([C@H]2C[C@@H]2COc2nc(C)ncc2C2CCC(=O)CC2)nc1 [Example 189, 4-(4-(((1S,2S)-2-(5-methoxypyridin-2-yl)cyclopropyl)methoxy)-2-methylpyrimidin-5-yl)cyclohexanone]
2.96 nM	COc1cccc([C@H]2C[C@@H]2COc2nc(C)ncc2C2CCC(=O)CC2)n1 [Example 202, 4-(4-(((1S,2S)-2-(6-methoxypyridin-2-yl)cyclopropyl)methoxy)-2-methylpyrimidin-5-yl)cyclohexanone]
1.26 nM	COc1ccc([C@H]2C[C@@H]2COc2nc(C)ncc2-c2cnc(C(=O)O)cn2)nc1 [Example 96, 5-(4-(((1S,2S)-2-(5-methoxypyridin-2-yl)cyclopropyl)methoxy)-2-methylpyrimidin-5-yl)pyrazine-2-carboxylic acid]
1.08 nM	COc1ccc([C@H]2C[C@@H]2COc2nc(C)ncc2-c2ccc(-c3nnnn3C)cc2)nc1 [Example 224, 4-(((1S,2S)-2-(5-methoxypyridin-2-yl)cyclopropyl)methoxy)-2-methyl-5-(4-(1-methyl-1H-tetrazol-5-yl)phenyl)pyrimidine]
0.9 nM	COc1ccc([C@H]2C[C@@H]2COc2nc(C)ncc2-c2cc(=O)[nH][nH]2)nc1 [Example 241, 5-(4-(((1S,2S)-2-(5-methoxypyridin-2-yl)cyclopropyl)methoxy)-2-methylpyrimidin-5-yl)-1,2-dihydropyrazol-3-one]
0.5 nM	CCc1ccc([C@@H]2C[C@@H]2COc2nc(C)ncc2[C@H]2CC[C@H](O)CC2)nc1 [Example 196, Trans-4-(4-(((1S,2R)-2-(5-ethylpyridin-2-yl)cyclopropyl)methoxy)-2-methylpyrimidin-5-yl)cyclohexanol]
0.01 nM	Cc1ncc(-c2ccc(CO)nc2)c(OC[C@H]2C[C@@H]2c2ccc3ccccc3n2)n1 [Example 154, (5-(2-methyl-4-(((1S,2S)-2-(quinolin-2-yl)cyclopropyl)methoxy)pyrimidin-5-yl)pyridin-2-yl)methanol]

Reference: patent publication US9663513B2, “Pyrimidine PDE10 inhibitors” (Merck Sharp & Dohme Corp., priority 2012, dated 2017)
